According to US20210024542A1 (Torcept Therapeutics, Inc., priority 2018, published 2021):
Like-named read-outs stand apart in the source and are kept apart here.

Legend:
[1] = test system: ST486; test: OncoPanel cell proliferation assay, ST486; assay type: cell-based, human; conditions: for Relative cell count (%) Mean: ST486
Experimental: (§1) Cells were grown in RPMI 1640, 10% FBS, 2 mM L-alanyl-L-glutamine, 1 mM Na pyruvate, or a special medium. Cells were seeded into 384-well plates and incubated in a humidified atmosphere of 5% CO2 at 37° C. Compounds were added the day following cell seeding. At the same time, a time zero untreated cell plate was generated. After a 3-day incubation period, cells were fixed and stained to allow fluorescence imaging of nuclei. Compounds (1 mM stock solutions) were serially diluted in half-log steps from the highest test concentration ([…]), and assayed over 10 concentrations with a maximum assay concentration of 0.1% DMSO. Automated fluorescence microscopy was carried out using a Molecular Devices ImageXpress Micro XL high-content imager, and images were collected with a 4× objective. 16-bit TIFF images were acquired and analyzed with MetaXpress 5.1.0.41 software.
(§2) Cell proliferation was measured by the fluorescence intensity of an incorporated nuclear dye. The output is referred to as the relative cell count, where the measured nuclear intensity is transformed to percent of control (POC) using the following formula: […]
(§3) Cellular response parameters were calculated using nonlinear regression to a sigmoidal single-site dose response model:
(§4) Where y is a response measured at concentration x, A and B are the lower and upper limits of the response, C is the concentration at the response midpoint (EC50), and D is the Hill Slope (Ref. 1).
(§5) EC50 is the test compound concentration at the curve inflection point or half the effective response (parameter C of the fitted curve solution). GI50 is the concentration needed to reduce the observed growth by half (midway between the curve maximum and the time zero value). “Cell Count Activity Area” is an estimate of the integrated area above the curve (Barretina, et al. The Cancer Cell Line Encyclopedia enables predictive modelling of anticancer drug sensitivity. Nature 483: 603-607). […] In rare instances, values <0 or >10 may be observed. […] Curve-fitting, calculations, and report generation was performed using a custom data reduction engine and MathIQ based software (AIM).

[2] = test system: CAMA-1; test: OncoPanel cell proliferation assay, CAMA-1; conditions: for Relative cell count (%) Mean: CAMA-1
Experimental: (§6) Cells were seeded into 384-well plates and incubated in a humidified atmosphere of 5% CO2 at 37° C. Compounds were added the day following cell seeding. At the same time, a time zero untreated cell plate was generated. After a 3-day incubation period, cells were fixed and stained to allow fluorescence imaging of nuclei. Compounds (1 mM stock solutions) were serially diluted in half-log steps from the highest test concentration (1 micromol), and assayed over 10 concentrations with a maximum assay concentration of 0.1% DMSO. Automated fluorescence microscopy was carried out using a Molecular Devices ImageXpress Micro XL high-content imager, and images were collected with a 4× objective. 16-bit TIFF images were acquired and analyzed with MetaXpress 5.1.0.41 software.

[3] = test system: NCI-H510A; test: OncoPanel cell proliferation assay, NCI-H510A; assay type: cell-based, human
Experimental: as §1, §2, §3, §4, §5

[4] = test system: SNU-5; test: OncoPanel cell proliferation assay, SNU-5; assay type: cell-based, human; conditions: for Relative cell count (%) Mean: SNU-5
Experimental: as §1, with “Cells” for “Cells were grown in RPMI 1640, 10% FBS, 2 mM L-alanyl-L-glutamine, 1 mM Na pyruvate, or a special medium. Cells”
as §2, §3, §4
GI50 is the concentration needed to reduce the observed growth by half (midway between the curve maximum and the time zero value). […] In rare instances, values <0 or >10 may be observed. […] Curve-fitting, calculations, and report generation was performed using a custom data reduction engine and MathIQ based software (AIM).

[5] = test system: CaOV3; test: OncoPanel cell proliferation assay, CaOV3; assay type: cell-based, human; conditions: for Relative cell count (%) Mean: CaOV3
Experimental: as §1, §2, §3, §4, §5

[6] = test system: RKOE6; test: OncoPanel cell proliferation assay, RKOE6; conditions: for Relative cell count (%) Mean: RKOE6
Experimental: as §6

With `CO[C@H]1C[C@@H]2CC[C@@H](C)[C@@](O)(O2)C(=O)C(=O)N2CCCC[C@H]2C(=O)O[C@H]([C@H](C)C[C@@H]2C[C@@H]3C[C@H]2C[C@H]3O)CC(=O)[C@H](C)/C=C(\C)[C@@H](O)[C@@H](OC)C(=O)[C@H](C)C[C@H](C)/C=C/C=C/C=C/1C` [Formula I, 37R-hydroxynorbornylrapamycin] the EC50 ([1]; Homo sapiens, 72 h, ST486, 3-day incubation, read-out: Cell Count EC50) was 0.128 nM, the GI50 ([1]; Homo sapiens, 72 h, ST486, 3-day incubation, read-out: Cell Count GI50) was 0.226 nM and the IC50 ([1]; Homo sapiens, 72 h, ST486, 3-day incubation, read-out: Cell Count IC50) was > 1000 nM. For the same compound, the “Cell Count Activity Area” value ([1]; ST486, scale 0-10) was 3.70, the “Relative cell count (%) Mean” value ([1]; 1.00E+00 microM) was 50.5% and the “Relative cell count (%) Mean” value ([1]; 1.00E−01 microM) was 58.5%. The “Relative cell count (%) Mean” value ([1]; 1.00E−02 microM) was 56.8%, the “Relative cell count (%) Mean” value ([1]; 1.00E−03 microM) was 61.1% and the “Relative cell count (%) Mean” value ([1]; 1.01E−04 microM) was 81.6%. For the same compound, the “Relative cell count (%) Mean” value ([1]; 3.16E−01 microM) was 51.1%, the “Relative cell count (%) Mean” value ([1]; 3.17E−02 microM) was 54.8% and the “Relative cell count (%) Mean” value ([1]; 3.17E−03 microM) was 56.0%. The “Relative cell count (%) Mean” value ([1]; 3.18E−04 microM) was 63.3%, the “Relative cell count (%) Mean” value ([1]; 3.18E−05 microM) was 90.7% and the “Cell Count Activity Area” value ([2]; CAMA-1, scale 0-10) was 4.42. For the same compound, the “Relative cell count (%) Mean” value ([2]; 1.00E+00 microM) was 44.1%, the “Relative cell count (%) Mean” value ([2]; 1.00E−01 microM) was 45.8% and the “Relative cell count (%) Mean” value ([2]; 1.00E−02 microM) was 51.2%. The “Relative cell count (%) Mean” value ([2]; 1.00E−03 microM) was 53.9%, the “Relative cell count (%) Mean” value ([2]; 1.01E−04 microM) was 86.0% and the “Relative cell count (%) Mean” value ([2]; 3.16E−01 microM) was 46.2%. The “Relative cell count (%) Mean” value ([2]; 3.17E−02 microM) was 48.8%, the “Relative cell count (%) Mean” value ([2]; 3.17E−03 microM) was 50.2% and the “Relative cell count (%) Mean” value ([2]; 3.18E−04 microM) was 66.1%. For the same compound, the “Relative cell count (%) Mean” value ([2]; 3.18E−05 microM) was 97.5%, the EC50 ([2]; Homo sapiens, CAMA-1, 72 h, read-out: Cell Count EC50) was 0.174 nM and the GI50 ([2]; Homo sapiens, CAMA-1, 72 h, read-out: Cell Count GI50) was 0.239 nM. For the same compound, the IC50 ([2]; Homo sapiens, CAMA-1, 72 h, read-out: Cell Count IC50) was 1.28 nM, the “Relative cell count (%) Mean” value ([3]; 1.00E+00 microM) was 66.2% and the “Relative cell count (%) Mean” value ([3]; 1.00E−01 microM) was 62.8%. The “Relative cell count (%) Mean” value ([3]; 1.00E−02 microM) was 69.5%, the “Relative cell count (%) Mean” value ([3]; 1.00E−03 microM) was 68.9% and the “Relative cell count (%) Mean” value ([3]; 1.01E−04 microM) was 77.7%. For the same compound, the “Relative cell count (%) Mean” value ([3]; 3.16E−01 microM) was 66.3%, the “Relative cell count (%) Mean” value ([3]; 3.17E−02 microM) was 64.7% and the “Relative cell count (%) Mean” value ([3]; 3.17E−03 microM) was 72.2%. For the same compound, the “Relative cell count (%) Mean” value ([3]; 3.18E−04 microM) was 70.5%, the “Relative cell count (%) Mean” value ([3]; 3.18E−05 microM) was 75.7% and the EC50 ([3]; Homo sapiens, 72 h, 3-day incubation, read-out: Cell Count EC50) was 0.00399 nM. For the same compound, the GI50 ([3]; Homo sapiens, 72 h, 3-day incubation, read-out: Cell Count GI50) was 0.83 nM, the IC50 ([3]; Homo sapiens, 72 h, 3-day incubation, read-out: Cell Count IC50) was > 1000 nM and the EC50 ([3]; Homo sapiens, Table 4 summary, Small cell lung cancer, read-out: EC50) was 0.004 nM. The “Cell Count Activity Area” value ([3]; scale 0-10) was 3.05, the EC50 ([4]; Homo sapiens, 72 h, SNU-5, 3-day incubation, read-out: Cell Count EC50) was 2.05 nM and the GI50 ([4]; Homo sapiens, 72 h, SNU-5, 3-day incubation, read-out: Cell Count GI50) was 23.8 nM. For the same compound, the IC50 ([4]; Homo sapiens, 72 h, SNU-5, 3-day incubation, read-out: Cell Count IC50) was > 1000 nM, the “Cell Count Activity Area” value ([4]; SNU-5, scale 0-10) was 2.14 and the “Relative cell count (%) Mean” value ([4]; 1.00E+00 microM) was 62.8%. The “Relative cell count (%) Mean” value ([4]; 1.00E−01 microM) was 65.7%, the “Relative cell count (%) Mean” value ([4]; 1.00E−02 microM) was 73.2% and the “Relative cell count (%) Mean” value ([4]; 1.00E−03 microM) was 84.5%. For the same compound, the “Relative cell count (%) Mean” value ([4]; 1.01E−04 microM) was 95.3%, the “Relative cell count (%) Mean” value ([4]; 3.16E−01 microM) was 64.0% and the “Relative cell count (%) Mean” value ([4]; 3.17E−02 microM) was 65.8%. For the same compound, the “Relative cell count (%) Mean” value ([4]; 3.17E−03 microM) was 77.6%, the “Relative cell count (%) Mean” value ([4]; 3.18E−04 microM) was 91.2% and the “Relative cell count (%) Mean” value ([4]; 3.18E−05 microM) was 96.3%. The “Cell Count Activity Area” value ([5]; CaOV3, scale 0-10) was 2.82, the “Relative cell count (%) Mean” value ([5]; 1.00E+00 microM) was 54.4% and the “Relative cell count (%) Mean” value ([5]; 1.00E−01 microM) was 58.3%. The “Relative cell count (%) Mean” value ([5]; 1.00E−02 microM) was 64.8%, the “Relative cell count (%) Mean” value ([5]; 1.00E−03 microM) was 75.3% and the “Relative cell count (%) Mean” value ([5]; 1.01E−04 microM) was 91.0%. For the same compound, the “Relative cell count (%) Mean” value ([5]; 3.16E−01 microM) was 57.1%, the “Relative cell count (%) Mean” value ([5]; 3.17E−02 microM) was 59.5% and the “Relative cell count (%) Mean” value ([5]; 3.17E−03 microM) was 68.5%. For the same compound, the “Relative cell count (%) Mean” value ([5]; 3.18E−04 microM) was 85.0%, the “Relative cell count (%) Mean” value ([5]; 3.18E−05 microM) was 92.8% and the EC50 ([5]; Homo sapiens, Caov-3, 72 h, CaOV3, 3-day incubation, read-out: Cell Count EC50) was 0.976 nM. The GI50 ([5]; Homo sapiens, Caov-3, 72 h, CaOV3, 3-day incubation, read-out: Cell Count GI50) was 9.68 nM, the IC50 ([5]; Homo sapiens, Caov-3, 72 h, CaOV3, 3-day incubation, read-out: Cell Count IC50) was > 1000 nM and the EC50 ([6]; Homo sapiens, RKOE6, 72 h, read-out: Cell Count EC50) was 0.201 nM. For the same compound, the GI50 ([6]; Homo sapiens, RKOE6, 72 h, read-out: Cell Count GI50) was 1.07 nM, the IC50 ([6]; Homo sapiens, RKOE6, 72 h, read-out: Cell Count IC50) was 2.88 nM and the “Cell Count Activity Area” value ([6]; RKOE6, scale 0-10) was 4.44. The “Relative cell count (%) Mean” value ([6]; 1.00E+00 microM) was 41.6%, the “Relative cell count (%) Mean” value ([6]; 1.00E−01 microM) was 43.0% and the “Relative cell count (%) Mean” value ([6]; 1.00E−02 microM) was 47.6%. For the same compound, the “Relative cell count (%) Mean” value ([6]; 1.00E−03 microM) was 55.7%, the “Relative cell count (%) Mean” value ([6]; 1.01E−04 microM) was 73.6% and the “Relative cell count (%) Mean” value ([6]; 3.16E−01 microM) was 41.0%. The “Relative cell count (%) Mean” value ([6]; 3.17E−02 microM) was 42.9%, the “Relative cell count (%) Mean” value ([6]; 3.17E−03 microM) was 52.5% and the “Relative cell count (%) Mean” value ([6]; 3.18E−04 microM) was 66.1%. For the same compound, the “Relative cell count (%) Mean” value ([6]; 3.18E−05 microM) was 92.5%.
